Experimental data taken from patent US5138069A (E. I. Du Pont de Nemours and Company, priority 1988, dated 1992).
Like-named read-outs stand apart in the source and are kept apart here.

Legend:
Renal Hypertensive Rats = test: Antihypertensive effects in renal hypertensive rats; assay type: in vivo; details: Rattus norvegicus; for minimal effective dose at 10 mg/kg / minimal effective dose at 100 mg/kg: Table 25; for minimal effective dose at 10 mg/kg / minimal effective dose at 3 mg/kg: intravenous; for minimal effective dose at 10 mg/kg: 10 mg/kg or less; for minimal effective dose at 100 mg/kg / minimal effective dose at 30 mg/kg: oral; for minimal effective dose at 100 mg/kg: 100 mg/kg or less; for minimal effective dose at 3 mg/kg / minimal effective dose at 30 mg/kg: Table 26
Method in brief: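 Renal hypertensive rats (renin-driven AII elevation) dosed orally at 100 mg/kg and/or i.v. via jugular cannula at 10 mg/kg; a second set used 30 mg/kg oral and 3 mg/kg i.v. Arterial pressure recorded continuously via carotid cannula and compared with pretreatment levels.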

AII receptor = test: Angiotensin II receptor binding (displacement of 3H-AII); details: read-out: Angiotensin II Receptor Binding IC50, rat adrenal cortical microsomes, 2 nM 3H-AII, 1 hour, room temperature
Protocol: The assay was carried out according to the method described by [Glossmann et al., J. Biol. Chem., 249, 825 (1974)], but with some modifications. The reaction mixture contained rat adrenal cortical microsomes (source of AII receptor) in Tris buffer and 2 nM of ^3 H-AII with or without potential AII antagonist. This mixture was incubated for 1 hour at room temperature and the reaction was subsequently terminated by rapid filtration and rinsing through glass micro-fibre filter. Receptor-bound ^3 H-AII trapped in filter was quantitated by scintillation counting.
Compounds listed in Table 26 were tested in the same manner as described for Table 25, except that in the test for antihypertensive effects in renal hypertensive rats, the compounds were administered orally at 30 mg/kg and intravenously at 3 mg/kg.

For CCCCc1nc(CO)c(Cl)n1Cc1ccc(-c2ccccc2C(=O)O)cc1 [Example 95], the minimal effective dose at 10 mg/kg (Renal Hypertensive Rats) was under 10 mg/kg, the minimal effective dose at 100 mg/kg (Renal Hypertensive Rats) was over 100 mg/kg and the IC50 (AII receptor; Table 25) was 1200 nM.

With CCCCc1ncc(CO)n1Cc1ccc(-c2ccccc2C(=O)O)cc1 [Example 97] the minimal effective dose at 10 mg/kg (Renal Hypertensive Rats) was under 10 mg/kg, the minimal effective dose at 100 mg/kg (Renal Hypertensive Rats) was over 100 mg/kg and the IC50 (AII receptor; Table 25) was 270 nM.

Compound CCCCc1nc(Cl)c(COC(C)C)n1Cc1ccc(-c2ccccc2C(=O)O)cc1 [Example 99] has a minimal effective dose at 10 mg/kg (Renal Hypertensive Rats) of under 10 mg/kg, a minimal effective dose at 100 mg/kg (Renal Hypertensive Rats) of under 100 mg/kg and an IC50 (AII receptor; Table 25) of 90 nM.

CCCCc1nc(Br)c(CO)n1Cc1ccc(-c2ccccc2C(=O)O)cc1 [Example 100] gave a minimal effective dose at 10 mg/kg (Renal Hypertensive Rats) of under 10 mg/kg, a minimal effective dose at 100 mg/kg (Renal Hypertensive Rats) of under 100 mg/kg and an IC50 (AII receptor; Table 25) of 90 nM.

In the case of CCCCc1nc(I)c(CO)n1Cc1ccc(-c2ccccc2C(=O)O)cc1 [Example 102], the minimal effective dose at 10 mg/kg (Renal Hypertensive Rats) is reported as under 10 mg/kg, the minimal effective dose at 100 mg/kg (Renal Hypertensive Rats) is reported as under 100 mg/kg and the IC50 (AII receptor; Table 25) is reported as 61 nM.

Compound CCCCc1nc(CO)c(I)n1Cc1ccc(-c2ccccc2C(=O)O)cc1 [Example 105] has a minimal effective dose at 10 mg/kg (Renal Hypertensive Rats) of under 10 mg/kg, a minimal effective dose at 100 mg/kg (Renal Hypertensive Rats) of under 100 mg/kg and an IC50 (AII receptor; Table 25) of 680 nM.

Compound CCCCc1nc(Cl)c(CO)n1Cc1ccc(-c2cccc(C)c2C(=O)O)cc1 [Example 106] has a minimal effective dose at 10 mg/kg (Renal Hypertensive Rats) of under 10 mg/kg, a minimal effective dose at 100 mg/kg (Renal Hypertensive Rats) of under 100 mg/kg and an IC50 (AII receptor; Table 25) of 1900 nM.

CCCc1nc(Cl)c(CO)n1Cc1ccc(-c2ccccc2C(=O)O)cc1 [Example 108] showed a minimal effective dose at 10 mg/kg (Renal Hypertensive Rats) of under 10 mg/kg, a minimal effective dose at 100 mg/kg (Renal Hypertensive Rats) of under 100 mg/kg and an IC50 (AII receptor; Table 25) of 160 nM.

CCCCCc1nc(Cl)c(CO)n1Cc1ccc(-c2ccccc2C(=O)O)cc1 [Example 109] was tested, and the minimal effective dose at 10 mg/kg (Renal Hypertensive Rats) was under 10 mg/kg, the minimal effective dose at 100 mg/kg (Renal Hypertensive Rats) was under 100 mg/kg and the IC50 (AII receptor; Table 25) was 980 nM.

In the case of CCCc1nc(Cl)c(C=O)n1Cc1ccc(-c2ccccc2-c2nnn[nH]2)cc1 [Example 114, 2-Propyl-4-chloro-1-[(2'-(1H-tetrazol-5-yl)biphenyl-4-yl)methyl]imidazole-5-carboxaldehyde], the minimal effective dose at 10 mg/kg (Renal Hypertensive Rats) is reported as under 10 mg/kg, the minimal effective dose at 100 mg/kg (Renal Hypertensive Rats) is reported as under 100 mg/kg and the IC50 (AII receptor; Table 25) is reported as 50 nM.

Work on CCCCc1nc(Cl)c(CC(=O)O)n1Cc1ccc(-c2ccccc2C(=O)O)cc1 [Example 115] yielded a minimal effective dose at 10 mg/kg (Renal Hypertensive Rats) of under 10 mg/kg, a minimal effective dose at 100 mg/kg (Renal Hypertensive Rats) of under 100 mg/kg and an IC50 (AII receptor; Table 25) of 430 nM.

CCCCc1nc(Cl)c(C(C)C(=O)O)n1Cc1ccc(-c2ccccc2C(=O)O)cc1 (centres unmarked) [Example 116] was tested, and the minimal effective dose at 10 mg/kg (Renal Hypertensive Rats) was under 10 mg/kg, the minimal effective dose at 100 mg/kg (Renal Hypertensive Rats) was under 100 mg/kg and the IC50 (AII receptor; Table 25) was 260 nM.

CCCCc1nc(CO)c([N+](=O)[O-])n1Cc1ccc(-c2ccccc2C(=O)O)cc1 [Example 117] gave a minimal effective dose at 10 mg/kg (Renal Hypertensive Rats) of under 10 mg/kg, a minimal effective dose at 100 mg/kg (Renal Hypertensive Rats) of under 100 mg/kg and an IC50 (AII receptor; Table 25) of 890 nM.

Work on CCCCc1nc(CO)c(Cl)n1Cc1ccc(-c2ccccc2-c2nn[nH]n2)cc1 [Example 118] yielded a minimal effective dose at 10 mg/kg (Renal Hypertensive Rats) of under 10 mg/kg, a minimal effective dose at 100 mg/kg (Renal Hypertensive Rats) of under 100 mg/kg and an IC50 (AII receptor; Table 25) of 89 nM.

Compound CCCCSc1ncc(CO)n1Cc1ccc(-c2ccccc2C(=O)O)cc1 [Example 123] has a minimal effective dose at 10 mg/kg (Renal Hypertensive Rats) of under 10 mg/kg, a minimal effective dose at 100 mg/kg (Renal Hypertensive Rats) of over 100 mg/kg and an IC50 (AII receptor; Table 25) of 5600 nM.

For CCCc1nc(C(F)(F)F)c(CO)n1Cc1ccc(-c2ccccc2C(=O)O)cc1 [Example 124A], the minimal effective dose at 3 mg/kg (Renal Hypertensive Rats) was under 3 mg/kg, the minimal effective dose at 30 mg/kg (Renal Hypertensive Rats) was under 30 mg/kg and the IC50 (AII receptor; Table 26) was 130 nM.

In the case of CCCc1nc(C(F)(F)C(F)(F)F)c(CO)n1Cc1ccc(-c2ccccc2C(=O)O)cc1 [Example 124B], the minimal effective dose at 3 mg/kg (Renal Hypertensive Rats) is reported as under 3 mg/kg, the minimal effective dose at 30 mg/kg (Renal Hypertensive Rats) is reported as under 30 mg/kg and the IC50 (AII receptor; Table 26) is reported as 50 nM.

CCCc1nc(C(F)(F)F)c(CO)n1Cc1ccc(-c2ccccc2-c2nn[nH]n2)cc1 [Example 124D] was tested, and the minimal effective dose at 3 mg/kg (Renal Hypertensive Rats) was under 3 mg/kg, the minimal effective dose at 30 mg/kg (Renal Hypertensive Rats) was under 30 mg/kg and the IC50 (AII receptor; Table 26) was 6 nM.

For CCCCc1nc(C(F)(F)C(F)(F)F)c(CO)n1Cc1ccc(-c2ccccc2-c2nn[nH]n2)cc1 [Example 124E], the minimal effective dose at 3 mg/kg (Renal Hypertensive Rats) was under 3 mg/kg, the minimal effective dose at 30 mg/kg (Renal Hypertensive Rats) was under 30 mg/kg and the IC50 (AII receptor; Table 26) was 7 nM.

Work on CCCc1nc(C(F)(F)C(F)(F)C(F)(F)F)c(CO)n1Cc1ccc(-c2ccccc2C(=O)O)cc1 [Example 124G] yielded a minimal effective dose at 3 mg/kg (Renal Hypertensive Rats) of under 3 mg/kg, a minimal effective dose at 30 mg/kg (Renal Hypertensive Rats) of under 30 mg/kg and an IC50 (AII receptor; Table 26) of 74 nM.

Work on CCCc1nc(C(F)(F)C(F)(F)C(F)(F)C(F)(F)F)c(CO)n1Cc1ccc(-c2ccccc2C(=O)O)cc1 [Example 124H] yielded a minimal effective dose at 3 mg/kg (Renal Hypertensive Rats) of under 3 mg/kg, a minimal effective dose at 30 mg/kg (Renal Hypertensive Rats) of under 30 mg/kg and an IC50 (AII receptor; Table 26) of 290 nM.

For CCCc1nc(C(F)(F)C(F)(F)C(F)(F)C(F)(F)C(F)(F)C(F)(F)F)c(CO)n1Cc1ccc(-c2ccccc2C(=O)O)cc1 [Example 124I], the minimal effective dose at 3 mg/kg (Renal Hypertensive Rats) was under 3 mg/kg, the minimal effective dose at 30 mg/kg (Renal Hypertensive Rats) was over 30 mg/kg and the IC50 (AII receptor; Table 26) was 2500 nM.

CCCc1nc(-c2c(F)c(F)c(F)c(F)c2F)c(CO)n1Cc1ccc(-c2ccccc2C(=O)O)cc1 [Example 124J] was tested, and the minimal effective dose at 3 mg/kg (Renal Hypertensive Rats) was under 3 mg/kg, the minimal effective dose at 30 mg/kg (Renal Hypertensive Rats) was under 30 mg/kg and the IC50 (AII receptor; Table 26) was 680 nM.

CCCc1nc(C(F)(F)C(F)(F)C(F)(F)F)c(CO)n1Cc1ccc(-c2ccccc2-c2nnn[nH]2)cc1 [Example 124K] gave a minimal effective dose at 3 mg/kg (Renal Hypertensive Rats) of under 3 mg/kg, a minimal effective dose at 30 mg/kg (Renal Hypertensive Rats) of under 30 mg/kg and an IC50 (AII receptor; Table 26) of 13 nM.

O=C(O)c1ccccc1-c1ccc(Cn2c(CO)cnc2SCC2CC2)cc1 [Example 124] gave a minimal effective dose at 10 mg/kg (Renal Hypertensive Rats) of under 10 mg/kg, a minimal effective dose at 100 mg/kg (Renal Hypertensive Rats) of over 100 mg/kg and an IC50 (AII receptor; Table 25) of 1800 nM.

Compound CCCCc1nc(Cl)c(C(=O)OC)n1Cc1ccc(-c2ccccc2C(=O)O)cc1 [Example 126, methyl 1-[(2'-carboxybiphenyl-4-yl)methyl]-2-butyl-4-chloroimidazole-5-carboxylate] has a minimal effective dose at 10 mg/kg (Renal Hypertensive Rats) of under 10 mg/kg, a minimal effective dose at 100 mg/kg (Renal Hypertensive Rats) of under 100 mg/kg and an IC50 (AII receptor; Table 25) of 340 nM.

CCCCc1nc(Cl)c(C(N)=O)n1Cc1ccc(-c2ccccc2C(=O)O)cc1 [Example 127, 1-[(2'-carboxybiphenyl-4-yl)methyl]-2-butyl-4-chloroimidazole-5-carboxamide] was tested, and the minimal effective dose at 10 mg/kg (Renal Hypertensive Rats) was under 10 mg/kg, the minimal effective dose at 100 mg/kg (Renal Hypertensive Rats) was under 100 mg/kg and the IC50 (AII receptor; Table 25) was 150 nM.

CCCCc1ncc(C=O)n1Cc1ccc(-c2ccccc2C(=O)O)cc1 [Example 130] was tested, and the minimal effective dose at 10 mg/kg (Renal Hypertensive Rats) was under 10 mg/kg, the minimal effective dose at 100 mg/kg (Renal Hypertensive Rats) was under 100 mg/kg and the IC50 (AII receptor; Table 25) was 470 nM.

CCCCc1nc(Cl)c(C=O)n1Cc1ccc(-c2ccccc2-c2nnn[nH]2)cc1 [Example 132, 2-n-Butyl-4-chloro-1-[(2'-(1H-Tetrazol-5-yl)-biphenyl-4-yl)methyl]imidazole-5-carboxaldehyde] was tested, and the minimal effective dose at 10 mg/kg (Renal Hypertensive Rats) was under 10 mg/kg, the minimal effective dose at 100 mg/kg (Renal Hypertensive Rats) was under 100 mg/kg and the IC50 (AII receptor; Table 25) was 20 nM.

CCCCc1nc(C(F)(F)F)c(C=O)n1Cc1ccc(-c2ccccc2-c2nnn[nH]2)cc1 [Example 133] gave a minimal effective dose at 10 mg/kg (Renal Hypertensive Rats) of under 10 mg/kg, a minimal effective dose at 100 mg/kg (Renal Hypertensive Rats) of under 100 mg/kg and an IC50 (AII receptor; Table 25) of 36 nM.

CCCCc1nc(Cl)c(C(=O)NC)n1Cc1ccc(-c2ccccc2C(=O)O)cc1 [Example 134] was tested, and the minimal effective dose at 10 mg/kg (Renal Hypertensive Rats) was under 10 mg/kg, the minimal effective dose at 100 mg/kg (Renal Hypertensive Rats) was under 100 mg/kg and the IC50 (AII receptor; Table 25) was 180 nM.

With CCCCc1nc(Cl)c(C(=O)N(C)C)n1Cc1ccc(-c2ccccc2C(=O)O)cc1 [Example 135] the minimal effective dose at 10 mg/kg (Renal Hypertensive Rats) was under 10 mg/kg, the minimal effective dose at 100 mg/kg (Renal Hypertensive Rats) was under 100 mg/kg and the IC50 (AII receptor; Table 25) was 1300 nM.

Compound CCC=Cc1nc(C(F)(F)F)c(CO)n1Cc1ccc(-c2ccccc2C(=O)O)cc1 [Example 137] has a minimal effective dose at 10 mg/kg (Renal Hypertensive Rats) of under 10 mg/kg, a minimal effective dose at 100 mg/kg (Renal Hypertensive Rats) of under 100 mg/kg and an IC50 (AII receptor; Table 25) of 53 nM.

Compound CCCc1nc(C(F)(F)F)c(C=O)n1Cc1ccc(-c2ccccc2C(=O)O)cc1 [Example 140A] has a minimal effective dose at 30 mg/kg (Renal Hypertensive Rats) of under 30 mg/kg and an IC50 (AII receptor; Table 26) of 390 nM.
